Consider one compound from article PMC6272341, “Synthesis and Biological Evaluation of N-Alkoxyphenyl-3-hydroxynaphthalene-2-carboxanilides” (Molecules, 2015).

In brackets after ≈: the same amount, converted by molar mass.

The test system of assay [1] is methicillin-resistant S. aureus clinical isolate SA 3202. Nature of the assay: In vitro antibacterial susceptibility testing, broth dilution micro-method (MIC). To be noted: Staphylococcus aureus, MRSA, 24 h, read-out: MIC MRSA 3202, clinical isolate MRSA 3202, 37 °C, MH broth. (Broth dilution looks for growth in wells or tubes with falling amounts of substance.)
The test system of the next assay is S. aureus ATCC 29213. Described as above. To be noted: Staphylococcus aureus, ATCC29213, 24 h, read-out: MIC SA.
For assay [2], the system named is methicillin-resistant S. aureus clinical isolate SA 630. The description is as above. To be noted: Staphylococcus aureus, MRSA, 24 h, read-out: MIC MRSA SA 630, clinical isolate MRSA SA 630, 37 °C, MH broth.
Assay [3] relates to M. tuberculosis H37Ra ATCC 25177. As to the kind of experiment: In vitro antimycobacterial evaluation, alamarBlue (MIC). It is filed as cell-based. To be noted: Mycobacterium tuberculosis, 168 h; M. tuberculosis H37Ra; 7 days, 37 °C, alamarBlue; MIC/IC90; read-out: MIC MT. As for the experimental part:
The evaluation of the in vitro antimycobacterial activity of the compounds was performed against M. tuberculosis H37Ra ATCC 25177 [25] and clinical isolate of M. avium subsp. paratuberculosis CIT03 [26], see Table 1. The activity of compounds was expressed as the minimum inhibitory concentration (MIC) that is defined for mycobacteria as a 90% or greater (IC90) reduction of growth in comparison with the control. The MIC/IC90 value is routinely and widely used in bacterial assays, being a standard detection limit according to the Clinical and Laboratory Standards Institute.
Mycobacterium tuberculosis H37Ra ATCC 25177 and well characterised clinical isolate M. avium subsp. paratuberculosis CIT03 were grown in Middlebrook broth (MB), supplemented with Oleic-Albumin-Dextrose-Catalase supplement (Becton Dickinson, Oxford, UK) and mycobactin J (2 μg/mL). Identification of these isolates was performed using biochemical and molecular protocols. At log phase growth, a culture sample (10 mL) was centrifuged at 15,000 rpm/20 min using a bench top centrifuge (Model CR 4-12, Jouan Inc., Winchester, VA, USA). Following removal of the supernatant, the pellet was washed in fresh Middlebrook 7H9GC broth and re-suspended in fresh supplemented MB (10 mL). The turbidity was adjusted to match McFarland standard No. 1 (3 × 10^8 cfu) with MB broth. A further 1:20 dilution of the culture was then performed in MB broth. The antimicrobial susceptibility of all three mycobacterial species was investigated in a 96-well plate format. In these experiments, sterile deionised water (300 µL) was added to all outer-perimeter wells of the plates to minimize evaporation of the medium in the test wells during incubation. Sample wells were composed of 100 µL of test compound dilution and 100 µL of the bacterial stock being tested against. Dilutions of each compound were prepared in duplicate. For all synthesized compounds, final concentrations ranged from 1000 μg/mL to 8 μg/mL. All compounds were prepared in DMSO and subsequent dilutions were made in supplemented MB. The plates were sealed with parafilm and incubated at 37 °C, for 7 days in the case of M. tuberculosis and 11 days in the case of M. avium subsp. paratuberculosis. Following incubation, a 10% addition of alamarBlue (AbD Serotec, Kidlington, UK) was mixed into each well and readings at 570 nm and 600 nm were taken, initially for background subtraction and subsequently after 24 h re-incubation. The background subtraction is necessary for strongly coloured compounds, where the colour may interfere with the interpretation of any colour change. For non-interfering compounds, a blue colour in the well was interpreted as an absence of growth and a pink colour was scored as growth. […] The MIC value is routinely and widely used in bacterial assays and is a standard detection limit according to the Clinical and Laboratory Standards Institute (CLSI,). Rifampicin (Sigma-Aldrich) was used as the standard as it is clinically used antimycobacterial drugs.
(In general: Resazurin is reduced to fluorescent resorufin, in cell work by metabolically active cells.)

Assay [4] relates to photosynthetic electron transport in spinach chloroplasts. As to the kind of experiment: Inhibition of photosynthetic electron transport (PET), DCPIP photoreduction (Hill reaction). The assay is classed as biochemical, spinach (Spinacia oleracea L.). How it is done:
The PET inhibiting activity of the compounds was expressed by IC50 values. […] The aqueous solubility of the para-substituted compounds was limited; therefore IC50 values could not be determined due to precipitation of compounds during experiment. […]
Chloroplasts were prepared from spinach (Spinacia oleracea L.) according to Masarovicova and Kralova. The inhibition of photosynthetic electron transport (PET) in spinach chloroplasts was determined spectrophotometrically (Genesys 6, Thermo Scientific Corporation), using an artificial electron acceptor 2,6-dichlorophenol-indophenol (DCPIP) according to Kralova et al., and the rate of photosynthetic electron transport was monitored as a photoreduction of DCPIP. The measurements were carried out in phosphate buffer (20.0 mM, pH 7.2) containing sucrose (0.4 M), MgCl2 (5.0 mM) and NaCl (15.0 mM). The chlorophyll content was 30 mg/L in these experiments and the samples were irradiated (~100 W/m^2 with 10 cm distance) with a halogen lamp (250 W) using a 4 cm water filter to prevent warming of the samples (suspension temperature 22 °C). The studied compounds were dissolved in DMSO due to their limited aqueous solubility. The applied DMSO concentration (up to 4%) had negligible effect on the photochemical activity in isolated spinach chloroplasts (observed differences in DCPIP photoreduction due DMSO addition were within experimental error). The inhibitory efficiency of the studied compounds was expressed by IC50 values, i.e., by molar concentration of the compounds causing 50% decrease in DCPIP photoreduction relative to the untreated control. […] All reagents used in this study were of analytical grade and were purchased from Sigma.

The test system of assay [5] is Chla-protein complexes of photosystem II in spinach chloroplasts. As to the kind of experiment: Chlorophyll a fluorescence emission spectra in spinach chloroplasts. The assay is classed as biochemical, spinach (Spinacia oleracea L.). To be noted: 0, 102, 204, 408 and 612 μM; λex = 436 nm; band at 686 nm. From the text: The studied compounds affected chlorophyll a (Chla) fluorescence in spinach chloroplasts indicating their interactions with constituents of photosynthetic apparatus. […] The extent of perturbation of Chla-protein complexes in the thylakoid membrane is reflected in the sharpness of decreased fluorescence of Chla pigment. A similar decrease of Chla fluorescence in plant chloroplasts was also observed previously after treatment with ring-substituted 1-hydroxynaphthalene-2-carboxanilides, 2-hydroxynaphthalene-1-carboxanilides, 5-bromo- and 3,5-dibromo-2-hydroxy-N-phenyl-benzamides and ring-substituted 4-arylamino-7-chloroquinolinium chlorides.
The emission fluorescence spectra were recorded on a fluorescence spectrophotometer F-2000 (Hitachi, Tokyo, Japan) at room temperature (24 °C). The samples of chloroplast suspension (10 mg chlorophyll/L) with and without the studied inhibitor were excited at 436 nm, using an excitation slit 20 nm and emission slit 10 nm, and were kept in the dark for 2 min prior to the measurement. Due to low aqueous solubility the compounds were added to a chloroplast suspension in DMSO solution. The DMSO concentration in all samples was the same as in the control (10%).

In assay [6] the test system is methicillin-resistant S. aureus clinical isolate MRSA 63718. Nature of the assay: In vitro antibacterial susceptibility testing, broth dilution micro-method (MIC). To be noted: Staphylococcus aureus, MRSA, 24 h, read-out: MIC MRSA 63718, clinical isolate MRSA 63718; 24 h, 37 °C, MH broth.
In assay [7] the test system is clinical isolate of M. avium subsp. paratuberculosis CIT03. As to the kind of experiment: In vitro antimycobacterial evaluation, alamarBlue (MIC). The assay is classed as cell-based. The conditions noted are these: Mycobacterium avium, 264 h, read-out: MIC MAP.

As a reminder, the MIC is the least concentration at which growth counts as inhibited. What is called IC50 is the concentration that inhibits the measured activity by half. Consider `CCOc1cccc(NC(=O)c2cc3ccccc3cc2O)c1` [Compound 4b, N-(3-Ethoxyphenyl)-3-hydroxynaphthalene-2-carboxamide], for which the MIC in assay [1] was determined as 832 µM (≈ 256 µg/mL); in the assay on S. aureus ATCC 29213, 832 µM (≈ 256 µg/mL); in assay [2], 832 µM (≈ 256 µg/mL); in assay [3], 813 µM (≈ 250 µg/mL); in assay [6], 832 µM (≈ 256 µg/mL); in assay [7], 813 µM (≈ 250 µg/mL). In assay [4], this compound showed an IC50 of 4.5 µM. Also, the “chlorophyll a fluorescence emission” value in assay [5] was “decreased intensity of the emission band at 686 nm”.
